Test results published in US7678789B2, “[1,2,4]-dithiazoli(di)ne derivatives, inducers of gluthathione-S-transferase and NADPH quinone oxido-reductase, for prophylaxis and treatment of adverse conditions associated with cytotoxicity in general and apoptosis in particular” (Solvay Pharmaceuticals B.V., priority 2005, dated 2010).

Columns and labels:
[1] = system: NAD(P)H: oxidoreductase (NQO, EC 1.6.99.2); experiment: Spectrophotometric determination of EC 1.6.99.2 (NQO) induction in PC-12 cells; type: cell-based; conditions: Rat PC-12 cells, 24 hours incubation; negative logarithm of molar concentration causing same half maximal induction as reference compound D3T; menadione/MTT
Protocol: Spectrophotometric Determination of EC 1.6.99.2 (NQO) Induction
Rat PC-12 cells are incubated for 24 hours with a test compound. NAD(P)H: oxidoreductase (NQO, EC 1.6.99.2) activity is measured using menadione as substrate and MTT as readout compound. The formation of formazan from MTT is measured spectrophotometrically at 540 nm. The percentage stimulation (PS) relative to the maximal effect of the reference compound D3T is calculated. The maximal percentage stimulation with the concentration which induced the maximal percentage as condition and the pEA50 value (the negative logarithm of the molar concentration of the compound which caused the same half maximal induction of the enzyme activity as the reference compound D3T) are recorded (see Murphy et al., “Enhanced NAD(P)H:Quinone reductase activity defenses in neuronal cells prevents free radical-mediated damage”, J. Neurochem., 71 69-77, 1998 and Prochaska et al., Analytical Biochemistiy, 169, 328-336 1988).

[2] = system: gluthathione-S-transferase (GST, EC 2.5.1.18); experiment: Spectrophotometric determination of EC 2.5.1.18 (GST) induction in PC-12 cells; type: cell-based; conditions: Rat PC-12 cells, 24 hours incubation; negative logarithm of molar concentration causing 50% induction of enzyme activity; CDNB and GSH substrates
Protocol: Spectrophotometric Determination of EC 2.5.1.18 (GST) Induction
Rat PC-12 cells are incubated for 24 hours with a test compound. GST activity is measured using 1-chloro-2,4-dinitrobenzene (CDNB) and gluthathine (GSH) as substrates. The enzyme catalyses the reaction converting these substrates into S-(2,4-dinitrophenyl)glutathione, which product is measured spectrophotometrically at 340 nm. The effect of the test compound is expressed as pEC50: the negative logarithm of the molar concentration of the compound which causes 50% induction of the enzyme activity. Also the maximal percentage enzyme induction is determined. (see Drukarch et al. “Anethole dithiolethione prevents oxidative damage in gluthathione-depleted astrocytes”, Eur. J. Pharmacol. 329, 259-262, 1997).

| Structure (SMILES) | NQO pEA50 [1] | melting point [°C] | GST pEC50 [2] |
| --- | --- | --- | --- |
| CCCCc1ccc(N=c2nc(N(C)C)ss2)cc1 [Compound A2] | 5.2 | 81 to 82.5 | 5.2 |
| CN(C)c1nc(=Nc2ccc([N+](=O)[O-])cc2)ss1 [Compound A10] | 5.8 | 170 to 171.5 | 5.4 |
| Cc1cccc(N=c2nc(N3CCOCC3)ss2)c1 [Compound B5] | 5.7 | 217 to 226 | 5.3 |
| CN=c1ssc(=Nc2ccccc2)n1C [Compound C2] | 6.2 | 80 to 82 | 5.8 |
| CN=c1ssc(=Nc2ccccc2C)n1C [Compound C3] | 5.7 | 100 to 101.4 | 5.8 |
| CN=c1ssc(=Nc2cccc(F)c2)n1C [Compound C11] | 5.3 | 76.5 to 77.6 | 5.6 |
